The source of these data is US20090197948A1, “Skin External Preparation” (Shiseido Co., Ltd., priority 2006, published 2009).

The experiment relates to skin of the forearms of 10 panelists (stratum corneum). In words: Testing by Conductance Measurement (rate of skin conductance change). It counts as in vivo, human. The following applies: for conductance evaluation, 30 minutes / conductance evaluation, 60 minutes / conductance evaluation, 120 minutes: Table 1, 10% aqueous solution; for conductance evaluation, 30 minutes: 30 minutes after application; for conductance evaluation, 60 minutes: 60 minutes after application; for conductance evaluation, 120 minutes: 120 minutes after application. How it is done:
“Testing by Conductance Measurement” The skin conductance was measured before the application and after 30 minutes, 60 minutes, and 120 minutes of the application on the forearms of 10 panelists. From the rate of change, the moisturizing effect was evaluated. The rate of change of the skin conductance is determined by the following equation (III), and the influences on the water-absorbing property and the moisture-retention ability of the stratum corneum can be investigated. If the rate of change is small, it can be estimated that there is an increase in the water content in the stratum corneum and that the moisturizing effect is high. Rate of conductance change=(conductance before application)/(conductance after application) Equation (III) The evaluation criteria for the “Testing by Conductance Measurement” are as follows. ⊚: Average of the rate of conductance change of 10 panelists: 0 or higher and lower than 0.1 ◯: Average of the rate of conductance change of 10 panelists: 0.1 or higher and lower than 0.2 Δ: Average of the rate of conductance change of 10 panelists: 0.2 or higher and lower than 0.5 X: Average of the rate of conductance change of 10 panelists: 0.5 or higher Initially, the present inventors evaluated the conductance, based on the above-described criteria, for respective 10% aqueous solutions of various moisturizers.

As for `CC(O)CCO` (stereo not shown) [1,3-butylene glycol], the “conductance evaluation, 30 minutes” value is “Δ (Average of the rate of conductance change of 10 panelists: 0.2 or higher and lower than 0.5)”; the “conductance evaluation, 60 minutes” value was “Δ (Average of the rate of conductance change of 10 panelists: 0.2 or higher and lower than 0.5)”; the “conductance evaluation, 120 minutes” value was “Δ (Average of the rate of conductance change of 10 panelists: 0.2 or higher and lower than 0.5)”.
For `OCC(O)CO` [glycerin], the “conductance evaluation, 30 minutes” value is “⊚ (Average of the rate of conductance change of 10 panelists: 0 or higher and lower than 0.1)”; the “conductance evaluation, 60 minutes” value is “◯ (Average of the rate of conductance change of 10 panelists: 0.1 or higher and lower than 0.2)”; the “conductance evaluation, 120 minutes” value is “◯ (Average of the rate of conductance change of 10 panelists: 0.1 or higher and lower than 0.2)”. For the same molecule, for the setting “Table 7, 5 % alone in ion exchanged water 95 %”, the Conductance measurement evaluation entry was “Δ (Average of the rate of conductance change of 10 panelists: 0.2 or higher and lower than 0.5)”.
